# Legend:
# [1] = system: JEG-3 (human placental choriocarcinoma cell line); assay: Real-time RT-PCR quantification of gene expression in drug-treated JEG-3; type: cell-based; details: for Real time PCR (Relative ratio), KIAA0310: GenBank AB002308; for Real time PCR (Relative ratio), ATP10B: GenBank AB018258; for Real time PCR (Relative ratio), TTF2: GenBank AB209845; for Real time PCR (Relative ratio), TncRNA: GenBank AF001893; for Real time PCR (Relative ratio), C4orf19: GenBank AK001879; for Real time PCR (Relative ratio), CYP19A1: GenBank AK023571; for Real time PCR (Relative ratio), SLC40A1: GenBank AK023574; for Real time PCR (Relative ratio), ABTB2: GenBank AK095632; for Real time PCR (Relative ratio), TUBB3: GenBank AK122757; for Real time PCR (Relative ratio), MGC27016: GenBank AK125877; for Real time PCR (Relative ratio), GLCCI1: GenBank AK126731; for Real time PCR (Relative ratio), TFCP2L4: GenBank BC036890; for Real time PCR (Relative ratio), RGS2: GenBank BC042755; for Real time PCR (Relative ratio), SIAT7A: GenBank BC063830; for Real time PCR (Relative ratio), B7-H4: GenBank BX648021; for Real time PCR (Relative ratio), COBLL1: GenBank BX649112; for Real time PCR (Relative ratio), CGA: GenBank NM_000735; for Real time PCR (Relative ratio), PARP1: GenBank NM_001618; for Real time PCR (Relative ratio), SERPINB9: GenBank NM_004155; for Real time PCR (Relative ratio), ST8SIA4: GenBank NM_005668; for Real time PCR (Relative ratio), ABL1: GenBank NM_007313; for Real time PCR (Relative ratio), GRLF1: GenBank NM_024342; for Real time PCR (Relative ratio), LGP1: GenBank NM_032484; for Real time PCR (Relative ratio), NCOA3: GenBank NM_181659; for Real time PCR (Relative ratio), SR140: GenBank XM_031553; for Real time PCR (Relative ratio), SLC7A8: GenBank Y18483
# Protocol: My IQ Real-Time PCR (Bio-Rad, USA) was performed to quantify the expressions of those genes.
# Particularly, cDNA was synthesized using oligo dT primer and Superscript kit (Omniscipt™ kit, Qiagen, Co., USA) by reverse transcription. 0.2 μl of the cDNA, 3.8 μl of water, 0.5 μg of a sense primer, 0.5 μg of an antisense primer, and […] of SYBR Green I supermix (Bio-Rad, USA) were mixed, which was placed in a PCR tube, followed by real-time RT-PCR in My IQ real-time PCR machine as follows: Step 1: 95°, 3 minutes; Step 2 (45 cycles): Step 2-1: 95°, 10 seconds; Step 2-2: 55-65° 45 seconds; Step 3: 95°, 1 minute; Step 4: 55°, 1 minute; Step 5 (80 cycles): 55°, 10 seconds. SYBR green I (Bio-Rad, USA) staining was performed to quantify the PCR product. SYBR I staining is the staining method using double stranded DNA binding. So, the more double stranded DNA is generated during PCR, the stronger the fluorescence intensity becomes. First, target gene and endogenous control (GAPDH) primers were added to SYBR green master mix, followed by PCR. Then, primer optimization was performed to determine a proper concentration. Synthesized cDNA and each primer were mixed (Table 4), to which SYBR master mix was added, followed by PCR.
# [2] = system: JEG-3 (human placental choriocarcinoma cell line); assay: Cytotoxicity test (MTT assay) in JEG-3
Structure (SMILES),"Real time PCR (Relative ratio), KIAA0310 [1]","Real time PCR (Relative ratio), ATP10B [1]","Real time PCR (Relative ratio), TTF2 [1]","Real time PCR (Relative ratio), TncRNA [1]","Real time PCR (Relative ratio), C4orf19 [1]","Real time PCR (Relative ratio), CYP19A1 [1]","Real time PCR (Relative ratio), SLC40A1 [1]","Real time PCR (Relative ratio), ABTB2 [1]","Real time PCR (Relative ratio), TUBB3 [1]","Real time PCR (Relative ratio), MGC27016 [1]","Real time PCR (Relative ratio), GLCCI1 [1]","Real time PCR (Relative ratio), TFCP2L4 [1]","Real time PCR (Relative ratio), RGS2 [1]","Real time PCR (Relative ratio), SIAT7A [1]","Real time PCR (Relative ratio), B7-H4 [1]","Real time PCR (Relative ratio), COBLL1 [1]","Real time PCR (Relative ratio), CGA [1]","Real time PCR (Relative ratio), PARP1 [1]","Real time PCR (Relative ratio), SERPINB9 [1]","Real time PCR (Relative ratio), ST8SIA4 [1]",other results
"CN(Cc1cnc2nc(N)nc(N)c2n1)c1ccc(C(=O)N[C@@H](CCC(=O)O)C(=O)O)cc1 [MTX, methotrexate]",3.9217,2.6467,1.9659,2.2297,36.2463,1.7007,6.0098,0.1356,4.7892,2.3343,2.5941,0.7146,5.6716,8.3865,0.4198,1.4978,0.0829,0.2381,1.5208,0.955,"Real time PCR (Relative ratio), ABL1 [1]: 0.5159; Real time PCR (Relative ratio), GRLF1 [1]: 0.7048; Real time PCR (Relative ratio), LGP1 [1]: 0.6468; Real time PCR (Relative ratio), NCOA3 [1]: 2.4457; Real time PCR (Relative ratio), SR140 [1]: 0.1357; Real time PCR (Relative ratio), SLC7A8 [1]: 2.8779; cytotoxicity to JEG-3 ([2]; FIGS. 1, 2 and 3): confirmed to have toxicity; IC30 (concentration shows 70% survival rate) ([2]; JEG-3, 48 hours, MTT, FIG. 1): 4.570 mM"
"CCCC(CCC)C(=O)O [VPA, valproic acid]",5.7397,2.7083,1.6637,1.8204,2.9592,2.15,1.9425,4.0469,1.9015,2.3155,1.6023,2.292,2.8779,4.5249,0.0755,12.2271,2.6497,0.7443,7.1977,3.7161,"Real time PCR (Relative ratio), ABL1 [1]: 0.8681; Real time PCR (Relative ratio), GRLF1 [1]: 0.8281; Real time PCR (Relative ratio), LGP1 [1]: 0.4982; Real time PCR (Relative ratio), NCOA3 [1]: 2.1913; Real time PCR (Relative ratio), SR140 [1]: 0.3565; Real time PCR (Relative ratio), SLC7A8 [1]: 6.3157"

# Reference: patent publication US8445207B2, “Genes based on thalidomide, valproic acid and methotrexate treatment for screening of drug inducing teratogenicity and screening method using thereof” (priority 2009, dated 2013)
